Experimental data from ChEMBL document CHEMBL1138031, “3D QSAR studies of N-4-arylacryloylpiperazin-1-yl-phenyl-oxazolidinones: a novel class of antibacterial agents” (2006).
In brackets after ≈: the same amount, converted by molar mass.

Tested on: Staphylococcus aureus
Assay: Antibacterial activity against Staphylococcus aureus ATCC 25923
Format: functional
Details: for MIC: Staphylococcus aureus, ATCC 25923

Row | Compound | Log (1/C) | MIC [µg/mL] | log(1/C)
1 | NC(=S)NC[C@H]1CN(c2ccc(N3CCN(C(=O)/C=C/c4ccncc4)CC3)c(F)c2)C(=O)O1 | 2.0833 | 4 (≈ 8.25 µM) | 
2 | CC(=O)NC[C@H]1CN(c2ccc(N3CCN(C(=O)/C=C/c4ccoc4)CC3)c(F)c2)C(=O)O1 | 2.3584 | 2 (≈ 4.38 µM) | 
3 | CC(=O)NC[C@H]1CN(c2ccc(N3CCN(C(=O)/C=C/c4ccc(O)c(O)c4)CC3)c(F)c2)C(=O)O1 | 1.4936 | 16 (≈ 32.1 µM) | 
4 | CC(=O)NC[C@H]1CN(c2ccc(N3CCN(C(=O)/C=C/c4cccnc4)CC3)c(F)c2)C(=O)O1 | 2.6698 | 1 (≈ 2.14 µM) | 
5 | CC(=O)NC[C@H]1CN(c2ccc(N3CCN(C(=O)/C=C/c4ccc(C(=O)O)o4)CC3)c(F)c2)C(=O)O1 | 1.4953 | > 16 | 
6 | C/C(S)=N/C[C@H]1CN(c2ccc(N3CCN(C(=O)/C=C/c4ccccc4)CC3)c(F)c2)C(=O)O1 | 3.2857 | 0.25 (≈ 0.518 µM) | 
7 | CC(=O)NC[C@H]1CN(c2ccc(N3CCN(C(=O)/C=C/c4ccc([N+](=O)[O-])o4)CC3)c(F)c2)C(=O)O1 | 3.3024 | 0.25 (≈ 0.499 µM) | 
8 | CC(=O)NC[C@H]1CN(c2ccc(N3CCN(C(=O)/C=C/c4ccsc4)CC3)c(F)c2)C(=O)O1 | 2.3735 | 2 (≈ 4.23 µM) | 
9 | C/C(S)=N/C[C@H]1CN(c2ccc(N3CCN(C(=O)/C=C/c4ccc([N+](=O)[O-])o4)CC3)c(F)c2)C(=O)O1 | 3.316 | 0.25 (≈ 0.483 µM) | 
10 | C/C(S)=N/C[C@H]1CN(c2ccc(N3CCN(C(=O)/C=C/c4ccncc4)CC3)c(F)c2)C(=O)O1 | 2.9855 | 0.5 (≈ 1.03 µM) | 
11 | CC(=O)NC[C@H]1CN(c2ccc(N3CCN(C(=O)/C=C/c4ccc(F)c(F)c4)CC3)c(F)c2)C(=O)O1 | 1.4971 | > 16 | 
12 | CC(=O)NC[C@H]1CN(c2ccc(N3CCN(C(=O)/C=C/c4cccc(O)c4)CC3)c(F)c2)C(=O)O1 | 2.3825 | 2 (≈ 4.14 µM) | 
13 | CC(=O)NC[C@H]1CN(c2ccc(N3CCN(C(=O)/C=C/c4ccc[nH]4)CC3)c(F)c2)C(=O)O1 | 2.3575 | 2 (≈ 4.39 µM) | 
14 | NC(=S)NC[C@H]1CN(c2ccc(N3CCN(C(=O)/C=C/c4ccc(O)cc4)CC3)c(F)c2)C(=O)O1 | 2.6986 | 1 (≈ 2 µM) | 
15 | CC(=O)NC[C@H]1CN(c2ccc(N3CCN(C(=O)/C=C/c4ccncc4)CC3)c(F)c2)C(=O)O1 | 2.3688 | 2 (≈ 4.28 µM) | 
16 | CC(=O)NC[C@H]1CN(c2ccc(N3CCN(C/C=C/c4ccco4)CC3)c(F)c2)C(=O)O1 | 2.0439 | 4 (≈ 9.04 µM) | 
17 | CC(=O)NC[C@H]1CN(c2ccc(N3CCN(C(=O)/C=C/c4cccs4)CC3)c(F)c2)C(=O)O1 | 2.6745 | 1 (≈ 2.12 µM) | 
18 | CC(=O)NC[C@H]1CN(c2ccc(N3CCN(C(=O)/C=C/c4ccc(COC(C)=O)o4)CC3)c(F)c2)C(=O)O1 | 1.82 | 8 (≈ 15.1 µM) | 
19 | CC(=O)NC[C@H]1CN(c2ccc(N3CCN(C(=O)/C=C/c4ccccc4)CC3)c(F)c2)C(=O)O1 | 2.0669 | 4 (≈ 8.57 µM) | 
20 | NC(=S)NC[C@H]1CN(c2ccc(N3CCN(C(=O)/C=C/c4c[nH]c5ccccc45)CC3)c(F)c2)C(=O)O1 | 3.3318 | 0.25 (≈ 0.478 µM) | 

Row | Compound | Log (1/C) | MIC [µg/mL] | log(1/C)
21 | CC(=O)NC[C@H]1CN(c2ccc(N3CCN(C(=O)/C=C/c4ccc(C)o4)CC3)c(F)c2)C(=O)O1 | 2.0706 | 4 (≈ 8.5 µM) | 
22 | CC(=O)NC[C@H]1CN(c2ccc(N3CCN(C(=O)CO)CC3)c(F)c2)C(=O)O1 [EPEREZOLID] | 1.9939 | 4 (≈ 10.1 µM) | 
23 | CC(=O)NC[C@H]1CN(c2ccc(N3CCN(C(=O)/C=C/c4ccc(C=O)o4)CC3)c(F)c2)C(=O)O1 | 2.0833 | 4 (≈ 8.26 µM) | 
24 | CC(=O)NC[C@H]1CN(c2ccc(N3CCN(C(=O)/C=C/c4ccc(CO)o4)CC3)c(F)c2)C(=O)O1 | 2.0851 | 4 (≈ 8.22 µM) | 
25 | C/C(S)=N/C[C@H]1CN(c2ccc(N3CCN(C(=O)/C=C/c4ccco4)CC3)c(F)c2)C(=O)O1 | 2.9755 | 0.5 (≈ 1.06 µM) | 
26 | CC(=O)NC[C@H]1CN(c2ccc(N3CCN(C(=O)/C=C/c4ccc(OC(=O)C(C)(C)C)cc4)CC3)c(F)c2)C(=O)O1 | 1.5492 | > 16 | 
27 | CC(=O)NC[C@H]1CN(c2ccc(N3CCN(C(=O)/C=C/c4ccc(OS(C)(=O)=O)cc4)CC3)c(F)c2)C(=O)O1 | 1.8456 | 8 (≈ 14.3 µM) | 
28 | CC(=O)NC[C@H]1CN(c2ccc(N3CCN(C(=O)/C=C/c4ccc([N+](=O)[O-])s4)CC3)c(F)c2)C(=O)O1 | 3.316 | 0.25 (≈ 0.483 µM) | 
29 | C/C(S)=N/C[C@H]1CN(c2ccc(N3CCN(C(=O)/C=C/c4c[nH]c5ccccc45)CC3)c(F)c2)C(=O)O1 | 3.0184 | 0.5 (≈ 0.959 µM) | 
30 | C/C(S)=N/C[C@H]1CN(c2ccc(N3CCN(C(=O)/C=C/c4ccc(O)cc4)CC3)c(F)c2)C(=O)O1 |  | 2 (≈ 4.01 µM) | 2.3967
31 | C/C(S)=N/C[C@H]1CN(c2ccc(N3CCN(C(=O)/C=C/c4cccs4)CC3)c(F)c2)C(=O)O1 | 3.2911 | 0.25 (≈ 0.512 µM) | 
32 | CC(=O)NC[C@H]1CN(c2ccc(N3CCN(C/C=C/c4ccc([N+](=O)[O-])o4)CC3)c(F)c2)C(=O)O1 | 2.387 | 2 (≈ 4.1 µM) | 
33 | CC(=O)NC[C@H]1CN(c2ccc(N3CCN(C(=O)/C=C/c4ccco4)CC3)c(F)c2)C(=O)O1 | 2.3584 | 2 (≈ 4.38 µM) | 
34 | CC(C)(C)C(=O)Oc1ccc(/C=C/C(=O)N2CCN(c3ccc(N4C[C@H](CNC(N)=S)OC4=O)cc3F)CC2)cc1 | 1.5621 | > 16 | 
35 | CC(=O)NC[C@H]1CN(c2ccc(N3CCN(C(=O)/C=C/c4c[nH]c5ccccc45)CC3)c(F)c2)C(=O)O1 | 2.4028 | 2 (≈ 3.96 µM) | 
36 | CC(=O)NC[C@H]1CN(c2ccc(N3CCN(C(=O)/C=C/c4ccc(O)cc4)CC3)c(F)c2)C(=O)O1 | 2.3825 | 2 (≈ 4.14 µM) | 
37 | NC(=S)NC[C@H]1CN(c2ccc(N3CCN(C(=O)/C=C/c4ccccc4)CC3)c(F)c2)C(=O)O1 | 2.6845 | 1 (≈ 2.07 µM) | 
38 | NC(=S)NC[C@H]1CN(c2ccc(N3CCN(C(=O)/C=C/c4cccs4)CC3)c(F)c2)C(=O)O1 | 2.9909 | 0.5 (≈ 1.02 µM) | 
39 | NC(=S)NC[C@H]1CN(c2ccc(N3CCN(C(=O)/C=C/c4ccco4)CC3)c(F)c2)C(=O)O1 | 2.6754 | 1 (≈ 2.11 µM) | 
